Measurements as given in patent publication US4205170A, “Propionic acid derivatives” (priority 1976, dated 1980).
Read-outs that look alike come from different tables or passages of the source.

Tested on: edema in the hind paws (carrageenan)
Test: carrageenan-induced hind paw edema, oral administration
Type: in vivo, male Wistar rats
Details: Rattus norvegicus; for inhibition in vivo at 10 mg/kg: 10 mg/kg orally; for inhibition in vivo at 5 mg/kg: 5 mg/kg orally
Experimental: That is, male Wistar rats weighing about 100 g, one group consisting of 5 to 7 animals, were given orally the compounds according to the present invention and then edema was induced in the hind paws by subcutaneous injections of 0.1 ml of 1% carrageenan 1 hour after the administration of the test compounds, and the volumes of the hind paws were measured by a volume differential meter.

[1] = 1 hr, read-out: Inhibition (%) 1 hr
[2] = 2 hr, read-out: Inhibition (%) 2 hr
[3] = 3 hr, read-out: Inhibition (%) 3 hr
[4] = 4 hr, read-out: Inhibition (%) 4 hr
[5] = 5 hr, read-out: Inhibition (%) 5 hr
[6] = 6 hr, read-out: Inhibition (%) 6 hr

SMILES	inhibition in vivo at 10 mg/kg [1]	inhibition in vivo at 10 mg/kg [2]	inhibition in vivo at 10 mg/kg [3]	inhibition in vivo at 10 mg/kg [4]	inhibition in vivo at 10 mg/kg [5]	inhibition in vivo at 10 mg/kg [6]	inhibition in vivo at 5 mg/kg [1]	inhibition in vivo at 5 mg/kg [2]	inhibition in vivo at 5 mg/kg [3]	inhibition in vivo at 5 mg/kg [4]	inhibition in vivo at 5 mg/kg [5]	inhibition in vivo at 5 mg/kg [6]
CCOC(=O)C(C)c1ccc2c(c1)Sc1ccccc1CC2=O (centres unmarked) [Compound 7, Ethyl 2-(10,11-dihydro-11-oxodibenzo[b,f]thiepin-3-yl)-propionate]	58.7%	39.6%	31.2%	25.9%	22.3%	18.8%						
CCOC(=O)C(C)c1ccc2c(c1)C(=O)Cc1ccccc1S2 (centres unmarked) [Compound 3, Ethyl 2-(10,11-dihydro-11-oxodibenzo[b,f]thiepin-2-yl)-propionate]	62.3%	72%	79.9%	78.2%	74.5%	64.5%						
CCOC(=O)C(C)c1ccc2c(c1)Sc1ccccc1CC2 (centres unmarked) [Compound 8, Ethyl 2-(10,11-dihydrodibenzo[b,f]thiepin-3-yl)-propionate]	43.2%	37.8%	26.9%	20.1%	15.8%	15.1%						
CC(C(=O)O)c1ccc2c(c1)C(=O)Cc1cccnc1O2 (centres unmarked) [Compound 26, 2-(5,6-dihydro-6-oxobenzo[b]pyrido[3,2-f]oxepin-8-yl)-propionic acid]							55.7%	52.6%	40%	32.2%	29.7%	24%
CC(C(=O)O)c1ccc2c(c1)CCc1cccnc1S2 (centres unmarked) [Compound 21, 2-(5,6-dihydrobenzo[b]pyrido[3,2-f]thiepin-8-yl)-propionic acid]	69.5%	75.6%	69%	67%	70.3%	64.6%						
CC(C(=O)O)c1ccc2c(c1)CCc1cccnc1O2 (centres unmarked) [Compound 27, 2-(5,6-dihydrobenzo[b]pyrido[3,2-f]oxepin-8yl)-propionic acid]							68%	83.5%	79%	81%	70.6%	61.5%
CC(C(N)=O)c1ccc2c(c1)CCc1ccccc1S2 (centres unmarked) [Compound 30, 2-(10,11-dihydrodibenzo[b,f]thiepin-2-yl)-propionamide]							21.4%	56.4%	59%	52.8%	38.6%	27.3%
CC(C(N)=O)c1ccc2c(c1)C(=O)Cc1ccccc1O2 (centres unmarked) [Compound 10, 2-(10,11-dihydro-11-oxodibenzo[b,f]oxepin-2-yl)-propionamide]	71.2%	69.3%	76.3%	76.7%	56.4%	34.4%						
CC(C(=O)O)c1ccc2c(c1)Sc1ncccc1CC2 (centres unmarked) [Compound 24, 2-(5,6-dihydrobenzo[b]pyrido[3,2-f]thiepin-9yl)-propionic acid]	19.6%	52.1%	49.9%	38.3%	28.2%	27.2%						
CCOC(=O)C(C)c1ccc2c(c1)CCc1cccnc1S2 (centres unmarked) [Compound 22, Ethyl 2-(5,6-dihydrobenzo[b]pyrido[3,2-f]thiepin-8-yl)-propionate]	29.6%	51.7%	59.1%	57%	45.9%	42.8%						
CC(C(N)=O)c1ccc2c(c1)CCc1cccnc1S2 (centres unmarked) [Compound 23, 2-(5,6-dihydrobenzo[b]pyrido[3,2-f]thiepin-8-yl)-propionamide]							22.6%	53.8%	60.9%	64.1%	51.8%	37.5%
CC(C(N)=O)c1ccc2c(c1)C(=O)Cc1ccccc1S2 (centres unmarked) [Compound 1, 2-(10,11-dihydro-11-oxodibenzo[b,f]thiepin-2-yl)-propionamide]	47.1%	66.7%	70.5%	73.6%	68%	66%						
CC(C(=O)O)c1ccc2c(c1)Sc1ccccc1CC2=O (centres unmarked) [Compound 6, 2-(10,11-dihydro-11-oxodibenzo[b,f]thiepin-3-yl)-propionic acid]	65.9%	41.5%	31.8%	26.1%	22.3%	20.5%						
CCOC(=O)C(C)c1ccc2c(c1)CCc1ccccc1O2 (centres unmarked) [Compound 14, Ethyl 2-(10,11-dihydrodibenzo[b,f]oxepin-2-yl)-propionate]	48.6%	67.6%	60.3%	53.2%	35.8%	26%						
CC(C(=O)O)c1ccc2c(c1)CCc1ccccc1O2 (centres unmarked) [Compound 13, 2-(10,11-dihydrodibenzo[b,f]oxepin-2-yl)-propionic acid]	42.4%	55.5%	65.4%	63.3%	49.1%	33.3%						
CC(C(N)=O)c1ccc2c(c1)CCc1ccccc1O2 (centres unmarked) [Compound 15, 2-(10,11-dihydrodibenzo[b,f]oxepin-2-yl)-propionamide]	36.1%	44.1%	53.3%	48.7%	33%	27.2%						
CC(C(N)=O)c1cccc2c1Oc1ccccc1CC2=O (centres unmarked) [Compound 17, 2-(10,11-dihydro-11-oxodibenzo[b,f]oxepin-4-yl)-propionamide]	65.9%	49.4%	35.4%	29%	17.2%	13%						
CCOC(=O)C(C)c1ccc2c(c1)C(=O)Cc1ccccc1O2 (centres unmarked) [Compound 11, Ethyl 2-(10,11-dihydro-11-oxodibenzo[b,f]oxepin-2-yl)-propionate]	21.2%	56.8%	64.9%	70%	62.8%	52.6%						
CCCCC1C(=O)N(c2ccccc2)N(c2ccccc2)C1=O [Phenyl butazone, reference compound]	12.4%	23.7%	27.4%	20%	14.4%	8.6%		22.7%	21.1%	22.2%	13.1%	13.6%
